Measured values as given in PubChem BioAssay AID330 (DTP/NCI, 2004).
“And” between values parts separate entries of the source, which are not always exact repeats. Identical values can stand only once. Inconclusive results and toxic doses are left out. The calls were made as follows: active = survival T/C of 150% or more; inactive = T/C below 125% in these data. Square brackets hold non-standard residues; d marks the D form. Peptide text beside a SMILES is read from it. ξ: configuration not given here. ξLac(3-iPr) = CC(C)CC(O)C(=O)O; NMeV = CN[CH](C(=O)O)C(C)C; NMeA = CN[CH](C)C(=O)O; βAla = NCCC(=O)O

Test system: P388 leukemia ip, CD2F1 mice, survival T/C
Experiment: NCI In Vivo Anticancer Drug Screen. Data for tumor model P388 Leukemia (intraperitoneal) in CD2F1 (CDF1) mice
Details: endpoint: median survival time, higher = longer survival
Method in brief: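 Mice carrying the transplanted tumor received test compound or vehicle. Survival was recorded in each group, and the value is the treated-group measurement divided by that of the vehicle-treated control group.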

[1] = dose: 12.5 mg/kg/injection, schedule: Q01DX005 (ip), vehicle: Klucel (hydroxypropylcellulose) (HPC)
[2] = dose: 50.0 mg/kg/injection, schedule: Q01DX005 (ip), vehicle: Klucel (hydroxypropylcellulose) (HPC)
[3] = dose: 100.0 mg/kg/injection, schedule: Q01DX005 (ip), vehicle: Klucel (hydroxypropylcellulose) (HPC)
[4] = dose: 200.0 mg/kg/injection, schedule: Q01DX005 (ip), vehicle: Klucel (hydroxypropylcellulose) (HPC)
[5] = dose: 50.0 mg/kg/injection, schedule: Q01DX009 (ip), vehicle: saline with Tween-80
[6] = dose: 100.0 mg/kg/injection, schedule: Q01DX009 (ip), vehicle: saline with Tween-80
[7] = dose: 200.0 mg/kg/injection, schedule: Q01DX009 (ip), vehicle: saline with Tween-80
[8] = dose: 60.0 mg/kg/injection, schedule: Q01DX005 (ip), vehicle: saline with Tween-80
[9] = dose: 120.0 mg/kg/injection, schedule: Q01DX005 (ip), vehicle: saline with Tween-80
[10] = dose: 240.0 mg/kg/injection, schedule: Q01DX005 (ip), vehicle: saline with Tween-80

Measured: T/C

O=c1ccncn1C1OC(CO)C(O)C1O (stereo not given)
inactive: dose: 60.0 mg/kg/injection, schedule: Q01DX005 (ip), vehicle: saline 103 % of control | dose: 120.0 mg/kg/injection, schedule: Q01DX005 (ip), vehicle: saline 102 % of control | dose: 240.0 mg/kg/injection, schedule: Q01DX005 (ip), vehicle: saline 110 % of control

COC1=CC(=O)C(CO)=CC1=O
inactive: dose: 3.12 mg/kg/injection, schedule: Q01DX009 (ip), vehicle: saline 104 % of control | dose: 6.25 mg/kg/injection, schedule: Q01DX009 (ip), vehicle: saline 103 % of control and 104 % of control | dose: 12.5 mg/kg/injection, schedule: Q01DX009 (ip), vehicle: saline 104 % of control and 91 % of control

O=C1C2CC34CCCN5CC1C1(c6ccccc6NC21CC3)C54 (stereo not given)
inactive: [1] 103 % of control | dose: 25.0 mg/kg/injection, schedule: Q01DX005 (ip), vehicle: Klucel (hydroxypropylcellulose) (HPC) 98 % of control | [2] 103 % of control

COc1c(C)n(CCCCCCn2ccc(=O)c(OC)c2C)ccc1=O
inactive: [2] 92 % of control | [3] 108 % of control | [4] 93 % of control

COC(=O)c1ccccc1NC1=NS(=O)(=O)c2ccccc2N1C
inactive: dose: 50.0 mg/kg/injection, schedule: Q01DX005 (ip), vehicle: saline with Tween-80 87 % of control | dose: 100.0 mg/kg/injection, schedule: Q01DX005 (ip), vehicle: saline with Tween-80 86 % of control | dose: 200.0 mg/kg/injection, schedule: Q01DX005 (ip), vehicle: saline with Tween-80 87 % of control

[Pd].c1ccc([PH+](CC[PH+](c2ccccc2)c2ccccc2)c2ccccc2)cc1.c1ccc([PH+](CC[PH+](c2ccccc2)c2ccccc2)c2ccccc2)cc1
inactive: dose: 30.0 mg/kg/injection, schedule: Q01DX005 (ip), vehicle: saline with Tween-80 99 % of control

NC1=NN(S(=O)(=O)c2ccc(Br)cc2)CC1
inactive: [2] 89 % of control | [3] 94 % of control | [4] 89 % of control

C/C(=N\NC(=S)N1CCN(c2ncccn2)CC1)c1ccccn1
inactive: dose: 6.25 mg/kg/injection, schedule: Q01DX005 (ip), vehicle: saline with Tween-80 119 % of control | dose: 12.5 mg/kg/injection, schedule: Q01DX005 (ip), vehicle: saline with Tween-80 119 % of control

CCCCN(CCCC)CCCCCCCC(O)c1cc2ccccc2c2ccccc12 (stereo not given)
inactive: dose: 50.0 mg/kg/injection, schedule: Q01DX005 (ip), vehicle: saline + Tween-80 + alcohol 113 % of control | dose: 100.0 mg/kg/injection, schedule: Q01DX005 (ip), vehicle: saline + Tween-80 + alcohol 110 % of control

CCCCCCCCCCCCC1=C(OC)C(NC(=O)CCCCCCCCCCC)=CC(=O)C1=O
inactive: dose: 50.0 mg/kg/injection, schedule: Q01DX001 (ip), vehicle: Klucel (hydroxypropylcellulose) (HPC) 92 % of control | dose: 100.0 mg/kg/injection, schedule: Q01DX001 (ip), vehicle: Klucel (hydroxypropylcellulose) (HPC) 88 % of control | dose: 200.0 mg/kg/injection, schedule: Q01DX001 (ip), vehicle: Klucel (hydroxypropylcellulose) (HPC) 90 % of control

CN1CCC(=C2c3ccccc3C(=O)C(=O)c3sccc32)CC1
inactive: [5] 95 % of control | [6] 95 % of control | [7] 111 % of control

c1ccc(-c2ccc(-c3ccccc3)cc2)cc1
inactive: dose: 12.5 mg/kg/injection, schedule: Q01DX009 (ip), vehicle: Klucel (hydroxypropylcellulose) (HPC) 109 % of control | dose: 25.0 mg/kg/injection, schedule: Q01DX009 (ip), vehicle: Klucel (hydroxypropylcellulose) (HPC) 97 % of control | dose: 50.0 mg/kg/injection, schedule: Q01DX009 (ip), vehicle: Klucel (hydroxypropylcellulose) (HPC) 98 % of control | dose: 100.0 mg/kg/injection, schedule: Q01DX009 (ip), vehicle: Klucel (hydroxypropylcellulose) (HPC) 98 % of control

COc1cccc(C2SCC(=O)N2c2nncs2)c1[N+](=O)[O-] (stereo not given)
inactive: [8] 110 % of control | [9] 100 % of control | [10] 91 % of control

Cc1[nH]c2ccccc2c1CC[n+]1cccc(C#N)c1
inactive: dose: 3.12 mg/kg/injection, schedule: Q01DX005 (ip), vehicle: Klucel (hydroxypropylcellulose) (HPC) 108 % of control | dose: 6.25 mg/kg/injection, schedule: Q01DX005 (ip), vehicle: Klucel (hydroxypropylcellulose) (HPC) 100 % of control | [1] 103 % of control

C=CCOCC1CN2CCOC2(C)O1 (stereo not given)
inactive: dose: 200.0 mg/kg/injection, schedule: Q01DX009 (ip), vehicle: water 105 % of control | dose: 400.0 mg/kg/injection, schedule: Q01DX009 (ip), vehicle: water 97 % of control | dose: 800.0 mg/kg/injection, schedule: Q01DX009 (ip), vehicle: water 105 % of control | dose: 1600.0 mg/kg/injection, schedule: Q01DX009 (ip), vehicle: water 102 % of control

COC(=O)/C=C1/Nc2ccc(Cl)cc2C(=O)NC1=O
inactive: [8] 95 % of control | [9] 93 % of control | [10] 93 % of control

CCC(C)C1NC(=O)C2CCCN2C(=O)C(CC(C)C)OC(=O)CCNC(=O)C(C)N(C)C(=O)C(C(C)C)N(C)C1=O (stereo not given) (cyclo([ξLac(3-iPr)]PI[NMeV][NMeA][βAla]); configuration not given here)
inactive: dose: 0.63 mg/kg/injection, schedule: Q01DX009 (ip), vehicle: saline 115 % of control | dose: 1.25 mg/kg/injection, schedule: Q01DX009 (ip), vehicle: saline 113 % of control | dose: 2.5 mg/kg/injection, schedule: Q01DX009 (ip), vehicle: saline 117 % of control | dose: 5.0 mg/kg/injection, schedule: Q01DX005 (ip), vehicle: saline with Tween-80 123 % of control | dose: 5.0 mg/kg/injection, schedule: Q01DX009 (ip), vehicle: saline 120 % of control | dose: 10.0 mg/kg/injection, schedule: Q01DX005 (ip), vehicle: saline with Tween-80 119 % of control

O=C(NN=C1c2ccccc2-c2ccccc21)C(F)(F)F
inactive: dose: 50.0 mg/kg/injection, schedule: Q01DX005 (ip), vehicle: Klucel + Tween-80 100 % of control | dose: 100.0 mg/kg/injection, schedule: Q01DX005 (ip), vehicle: Klucel + Tween-80 100 % of control | dose: 200.0 mg/kg/injection, schedule: Q01DX005 (ip), vehicle: Klucel + Tween-80 100 % of control

COC(=O)NCCn1c([N+](=O)[O-])cnc1C
inactive: dose: 100.0 mg/kg/injection, schedule: Q01DX001 (ip), vehicle: saline with Tween-80 99 % of control | dose: 200.0 mg/kg/injection, schedule: Q01DX001 (ip), vehicle: saline with Tween-80 98 % of control | dose: 400.0 mg/kg/injection, schedule: Q01DX001 (ip), vehicle: saline with Tween-80 106 % of control

NC(=NCc1ccc2c(c1)OCO2)N[N+](=O)[O-]
inactive: [2] 104 % of control | [3] 100 % of control | [4] 96 % of control

C[n+]1c(/C=C/c2ccc([N+](=O)[O-])cc2)ccc2ccccc21
inactive: dose: 3.3 mg/kg/injection, schedule: Q01DX009 (ip), vehicle: saline sonified 100 % of control | dose: 6.5 mg/kg/injection, schedule: Q01DX009 (ip), vehicle: saline sonified 111 % of control | dose: 12.5 mg/kg/injection, schedule: Q01DX009 (ip), vehicle: saline sonified 111 % of control

NNC(=O)COc1ccc(Br)cc1Br
inactive: [8] 95 % of control | [9] 97 % of control

S=C(NC1CCCCC1)N1CCC(CCCC2CCN(C(=S)NC3CCCCC3)CC2)CC1
inactive: dose: 25.0 mg/kg/injection, schedule: Q04DX003 (ip), vehicle: saline with Tween-80 90 % of control | [5] 90 % of control | dose: 50.0 mg/kg/injection, schedule: Q04DX003 (ip), vehicle: saline with Tween-80 90 % of control | [6] 90 % of control and 95 % of control | dose: 100.0 mg/kg/injection, schedule: Q04DX003 (ip), vehicle: saline with Tween-80 90 % of control | [7] 90 % of control | dose: 200.0 mg/kg/injection, schedule: Q04DX003 (ip), vehicle: saline with Tween-80 90 % of control | dose: 400.0 mg/kg/injection, schedule: Q01DX009 (ip), vehicle: saline with Tween-80 95 % of control | dose: 400.0 mg/kg/injection, schedule: Q04DX003 (ip), vehicle: saline with Tween-80 90 % of control
